Patent US20090209605A1, “NEMATICIDAL COMPOSITIONS” (Devgen N.V., priority 2004, published 2009)

Columns and labels:
Format in all cases: in vivo
[1] = system: root-knot nematode (Meloidogyne spp); test: Nematicide field trial on cucumber: root galling and yield; details: Product Rate 1500 g ai/ha
Protocol: Open ground grown cucumber (Cucumis sativus cv Carine) were grown on sandy soil with a natural root-knot nematode (Meloidogyne spp) population. Soil samples, collected prior to planting, contained on average 8 J2 juveniles per 100 g soil. A program of 4 applications with intervals of about 14 days was started six days after transplantation.
(§1) An experimental pattern at Complete Randomized Blocks with four replicas was adopted. Besides the experimental products, each test also included an untreated control and a treatment with the standard commercial product VYDATE 10L (10%) applied in accordance to label instructions.
[…] The level of nematode attack of the root system at the time of harvesting was assessed by means of the lamberti scoring.

Heterodera nematode = test: Pot Assay 3: Heterodera infection of sugar beet, crop vigor and crop height; details: infested soil
Excerpt: The soil used in this assay originated from a Heterodera nematode infested sugar plot of which the infestation was confirmed by means of several soil analyses. Each pot was filled up with a soil mixture composed as follows: a) the infested soil was constituted by silt loam soil (about 600 g/pot) mixed with sterile peat (about 600 g/pot) and sterile cork (about 200 g/pot); b) the sterile soil was instead constituted only by sterile peat (1200 g/pot) and sterile cork (200 g/pot).
Each compound or compound mixture as described herein was tested in 4 different rates with 4 replicates per rate. One pot per replicate was used in which 18 beava sugar beet seeds (variety GEA (KWS)) were sown. After crop germination, the number of plants was reduced to 10 plants. The 4 rates added to the soil of the tested compounds or compound mixtures were 0.05 mg, 0.20 mg, 1 mg and 5 mg. These amounts translate to field application rates respectively as 30, 120, 600 and 3000 g per hectare.
Efficacy of the compounds described herein as nematicide was measured by visual inspection of the crop vigor and the crop height. The crop vigor evaluation is based on a 0-100 scale, where 0 is “no vigor” and 100 is “maximum vigor”. The crop height development is based on a measurement, in cm, per plant, excluding the root system.
Positive control plants were treated with Oxamyl (Vydate 5 G, 5% gr) at a rate of 40 kg fp per ha. Negative controls involved single negative controls (no compound, with nematode infested soil; referenced as “Untreated 1”) and double negative controls (no compound, sterile soil; referenced as “Untreated 2”).

Meloidogyne nematodes = test: Pot Assay 2: Meloidogyne infection of tomato, % infestation of roots; details: RATE 0.05 mg; tomato in infested soil
Protocol: The soil used in this assay originated from a plot, heavily infested with Meloidogyne nematodes. Part of this soil was sterilized by autoclaving and was used as negative control. Sandy soil, which was not infested with nematodes, was pursued from a commercial source.
Plastic seedling trays with wells of 60 ml capacity were filled with about 40 ml of soil per well. 5 ml of water per well was used for irrigation.
Compounds as described herein were tested in 4 different rates and with 12 replicates for each concentration. The compounds as described herein were stored as dry films of 4 different concentrations. The day of the application of the compounds, all the dry films were dissolved in 60 ml water and poured into the 12 replicate wells: 5 ml per well. Every tray of 12 wells was identified with a label, indicating compound and concentration used. The 4 final rates in the soil of the tested compound were approximately 0.05 mg, 0.20 mg, 1 mg and 5 mg. These amounts translate to field application rates respectively as 30, 120, 600 and 3000 g per hectare.
3-5 days after application of the tested compound, tomato seeds (cv. Rio Grande) were sown in the wells by hand, at about 2 cm deep. A light cover of vermiculite on the surface was used to avoid dehydration. Plants were irrigated by micro-nebulization 3-4 times per week at a rate of 3 L/m^2, weeded by hand and treated with fertilizers, fungicide and insecticides when needed.
Their resistance against nematode infection was monitored and the efficacy of compounds described herein as a nematicide was measured. Furthermore the phytotoxicity of the test compounds was evaluated.
Efficacy of the compounds described herein as nematicide was measured by giving the roots a percentage of infestation measured as follows. Plants were grown to reach good development of the roots, which corresponds to plants grown to about 10 cm high at about one month after emergence. After removal of the soil from the roots by rinsing with water, the roots were visually inspected and root galls were counted on 4 plants of the set of 12 replicate plants.
Positive control plants were treated with a 10 micromolar concentration of oxamyl (Vydate, 10% SL; the rate of 10 micromolar corresponds to a commercial rate of 20 l/ha), a known nematicide. Negative controls involved double negative controls (no compound, sterile soil), and single negative controls (no compound, with nematode infested soil).

[2] = system: root-knot nematode (Meloidogyne spp); test: Nematicide field trial on tomato: root galling and yield; details: for Average root galling: 0-5 Lamberti scale
Protocol: Open field tomatoes (Lycopersicon esculentum, variety incas) were grown on sandy soil with a natural root-knot nematode (Meloidogyne spp) population. Soil samples, collected prior to planting, contained on average 113 J2 juveniles per 100 g soil. A program of 5 applications with intervals of about 14 days was started two days after transplantation.
as §1
The read-outs are the average yield of the marketable tomatoes per plant (Table 7). The level of nematode attack of the root system at the time of harvesting was assessed by means of the lamberti scoring.

[3] = Product Rate 4 (footnote g ai/ha)
[4] = Product Rate 8 (footnote g ai/ha)

## CCCCc1c(C)nc(NCC)nc1OS(=O)(=O)N(C)C [XLIII]
[1]
  Average yield of marketable fruits: 8.7 kg/plant/pot
[1]; 0-5 Lamberti scale
  Average root galling: 1.5
Heterodera nematode; Rate 1 mg
  crop height (cm): 14 cm
  crop vigor (max 100%): 80%
Heterodera nematode; Rate 5 mg
  crop height (cm): 15 cm
  crop vigor (max 100%): 100%
Meloidogyne nematodes
  % INF. (% Infestation): 1.3%
[2]; [3]
  Average yield of marketable fruits: 1.28 kg/plant/pot
  Average root galling: 1.1
[2]; [4]
  Average yield of marketable fruits: 1.25 kg/plant/pot
  Average root galling: 1.6
